Assay results: patent publication US20240270762A1, “PENICILLIN-BINDING PROTEIN INHIBITORS” (priority 2021, published 2024)
≈ marks a conversion by molar mass, not a printed value.

Legend:
A. baumannii CDC-0083 = assay: microbe, parasite or virus in culture; assay type: cell-based; details: Acinetobacter baumannii, CDC0083, read-out: MIC, A. baumannii CDC-0083
[1] = molecular target: T1, PBP3 from Pseudomonas aeruginosa (PAO1) (Pseudomonas aeruginosa, UniProt G3XD46); assay: Bocillin-FL fluorescence polarization competition binding, P. aeruginosa PBP3; details: Binding affinity to P. aeruginosa PBP3; fluorescence polarization competition binding assay using Bocillin-FL; read-out: P. aeruginosa PBP3 Potency
T1 construct: made in house
T1 sequence (G3XD46 whole entry): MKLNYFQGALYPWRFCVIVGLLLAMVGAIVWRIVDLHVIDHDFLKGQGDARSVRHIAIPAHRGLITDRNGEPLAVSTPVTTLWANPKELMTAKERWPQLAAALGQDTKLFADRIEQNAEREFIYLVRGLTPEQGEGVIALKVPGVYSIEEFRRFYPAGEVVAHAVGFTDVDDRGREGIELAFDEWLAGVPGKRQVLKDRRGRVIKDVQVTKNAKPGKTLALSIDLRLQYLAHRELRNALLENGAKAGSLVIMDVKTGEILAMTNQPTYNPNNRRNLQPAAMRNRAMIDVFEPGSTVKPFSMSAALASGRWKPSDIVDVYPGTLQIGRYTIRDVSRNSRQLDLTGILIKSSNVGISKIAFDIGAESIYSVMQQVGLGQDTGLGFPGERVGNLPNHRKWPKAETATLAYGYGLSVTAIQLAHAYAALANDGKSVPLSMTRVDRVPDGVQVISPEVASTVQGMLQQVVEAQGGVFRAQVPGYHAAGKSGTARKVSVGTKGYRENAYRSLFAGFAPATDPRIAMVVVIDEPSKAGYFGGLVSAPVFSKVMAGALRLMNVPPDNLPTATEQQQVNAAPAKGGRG
Procedure, shortened: (§1)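 Purified PBPs pre-incubated with inhibitor (E. coli PBP3 1.5 μM, 30 min; P. aeruginosa PBP3 0.75 μM, A. baumannii PBP1a 1 μM and PBP3 0.2 μM, 15 min), then Bocillin-FL 0.1 μM (0.05 μM for PBP1a) added; FP read up to 60 min. EC50 = concentration halving bound Bocillin-FL.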

A. baumannii CDC-0033 = assay: microbe, parasite or virus in culture; assay type: cell-based; details: Acinetobacter baumannii, CDC0033, read-out: MIC, A. baumannii CDC-0033
N. gonorrhoeae WHO G = assay: Liquid broth MIC in Fastidious broth; details: Neisseria gonorrhoeae, read-out: Minimum Inhibitory Concentration (MIC), N. gonorrhoeae WHO G
P. aeruginosa CDC-0110 = assay: microbe, parasite or virus in culture; assay type: cell-based; details: Pseudomonas aeruginosa, CDC0110, read-out: Minimum inhibitory concentration, P. aeruginosa CDC-0110
[2] = tested on: B. humptydooensis ATCC BAA-2767; assay: microbe, parasite or virus in culture; assay type: cell-based; details: Burkholderia humptydooensis, ATCCBAA2767, read-out: Minimum inhibitory concentration (MIC), B. humptydooensis ATCC BAA-2767
[3] = tested on: B. thailandensis ATCC 700388; assay: microbe, parasite or virus in culture; assay type: cell-based; details: Burkholderia thailandensis, ATCC700388, read-out: Minimum inhibitory concentration (MIC), B. thailandensis ATCC 700388
P. aeruginosa CDC-0095 = assay: microbe, parasite or virus in culture; assay type: cell-based; details: Pseudomonas aeruginosa, CDC0095, read-out: Minimum inhibitory concentration, P. aeruginosa CDC-0095
P. aeruginosa CDC-0090 = assay: microbe, parasite or virus in culture; assay type: cell-based; details: Pseudomonas aeruginosa, CDC0090, read-out: Minimum inhibitory concentration, P. aeruginosa CDC-0090
N. gonorrhoeae WHO X = assay: Liquid broth MIC in Fastidious broth; details: Neisseria gonorrhoeae, read-out: Minimum Inhibitory Concentration (MIC), N. gonorrhoeae WHO X
P. aeruginosa ATCC 27853 = assay: microbe, parasite or virus in culture; assay type: cell-based; details: Pseudomonas aeruginosa, ATCC27853, read-out: Minimum inhibitory concentration, P. aeruginosa ATCC 27853
P. aeruginosa CDC-0054 = assay: microbe, parasite or virus in culture; assay type: cell-based; details: Pseudomonas aeruginosa, CDC0054, read-out: Minimum inhibitory concentration, P. aeruginosa CDC-0054
[4] = molecular target: T2, PBP3 from Escherichia coli (K-12) (Escherichia coli, UniProt P0AD68); assay: Bocillin-FL fluorescence polarization competition binding, E. coli PBP3
T2 construct: made in house
T2 sequence (P0AD68 1-577): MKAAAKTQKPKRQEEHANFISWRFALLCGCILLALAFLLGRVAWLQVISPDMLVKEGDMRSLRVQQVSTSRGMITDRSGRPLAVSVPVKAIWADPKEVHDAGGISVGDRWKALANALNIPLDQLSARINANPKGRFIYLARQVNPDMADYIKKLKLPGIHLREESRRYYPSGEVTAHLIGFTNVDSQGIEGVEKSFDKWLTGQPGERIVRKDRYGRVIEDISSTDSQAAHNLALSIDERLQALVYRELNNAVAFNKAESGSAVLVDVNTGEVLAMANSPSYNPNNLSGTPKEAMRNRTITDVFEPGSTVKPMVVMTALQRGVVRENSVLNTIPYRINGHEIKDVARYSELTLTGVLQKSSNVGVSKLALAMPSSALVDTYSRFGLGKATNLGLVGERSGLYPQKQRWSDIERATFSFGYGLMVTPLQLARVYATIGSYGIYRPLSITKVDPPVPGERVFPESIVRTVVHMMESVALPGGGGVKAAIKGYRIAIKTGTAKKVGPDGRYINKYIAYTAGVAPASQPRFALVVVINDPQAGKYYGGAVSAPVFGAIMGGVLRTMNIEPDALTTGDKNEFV
Procedure, shortened: as §1

N. gonorrhoeae CDC-0197 = assay: Liquid broth MIC in Fastidious broth; details: Neisseria gonorrhoeae, CDC0197, read-out: Minimum Inhibitory Concentration (MIC), N. gonorrhoeae CDC-0197
[5] = tested on: N. gonorrhoeae ATCC 49226; assay: Liquid broth MIC in Fastidious broth; details: Neisseria gonorrhoeae, ATCC49226, read-out: Minimum Inhibitory Concentration (MIC), N. gonorrhoeae ATCC 49226

Structure (SMILES) | MIC (A. baumannii CDC-0083) [µg/mL] | IC50 [1] [µM] | MIC (A. baumannii CDC-0033) [µg/mL] | MIC (N. gonorrhoeae WHO G) [µg/mL] | MIC (P. aeruginosa CDC-0110) [µg/mL] | MIC [2] [µg/mL] | MIC [3] [µg/mL] | MIC (P. aeruginosa CDC-0095) [µg/mL] | MIC (P. aeruginosa CDC-0090) [µg/mL] | MIC (N. gonorrhoeae WHO X) [µg/mL] | MIC (P. aeruginosa ATCC 27853) [µg/mL] | MIC (P. aeruginosa CDC-0054) [µg/mL] | EC50 [4] [µM] | MIC (N. gonorrhoeae CDC-0197) [µg/mL] | MIC [5] [µg/mL]
O=C(NCCN1CCN(C(=O)N[C@@H](C(=O)N[C@H]2Cc3ccc(F)c(C(=O)O)c3OB2O)c2cc(F)c(O)c(O)c2Cl)C(=O)C1=O)Nc1ccncc1 [Example 221, (R)-3-((R)-2-(2-chloro-5-fluoro-3,4-dihydroxyphenyl)-2-(2,3-dioxo-4-(2-(3-(pyridin-4-yl)ureido)ethyl)piperazine-1-carboxamido)acetamido)-7-fluoro-2-hydroxy-3,4-dihydro-2H-benzo[e][1,2]oxaborinine-8-carboxylic acid] | 32 to 64 (≈ 42.9 to 85.8 µM) | < 10 | 2 to 4 (≈ 2.68 to 5.36 µM) | 4 to 8 (≈ 5.36 to 10.7 µM) | < 1 | < 1 | 2 to 4 (≈ 2.68 to 5.36 µM) | 8 to 16 (≈ 10.7 to 21.5 µM) | < 1 | > 64 | < 1 | 2 to 4 (≈ 2.68 to 5.36 µM) | < 10 | > 64 | 16 to 32 (≈ 21.5 to 42.9 µM)
O=C(NCCN1CCN(C(=O)N[C@@H](C(=O)N[C@H]2Cc3ccc(F)c(C(=O)O)c3OB2O)c2cc(F)c(O)c(O)c2Cl)C(=O)C1=O)Nc1cccnc1 [Example 222, (R)-3-((R)-2-(2-chloro-5-fluoro-3,4-dihydroxyphenyl)-2-(2,3-dioxo-4-(2-(3-(pyridin-3-yl)ureido)ethyl)piperazine-1-carboxamido)acetamido)-7-fluoro-2-hydroxy-3,4-dihydro-2H-benzo[e][1,2]oxaborinine-8-carboxylic acid] | 32 to 64 (≈ 42.9 to 85.8 µM) | < 10 | 2 to 4 (≈ 2.68 to 5.36 µM) | 4 to 8 (≈ 5.36 to 10.7 µM) | < 1 | 2 to 4 (≈ 2.68 to 5.36 µM) | 2 to 4 (≈ 2.68 to 5.36 µM) | 8 to 16 (≈ 10.7 to 21.5 µM) | 2 to 4 (≈ 2.68 to 5.36 µM) | > 64 | < 1 | 2 to 4 (≈ 2.68 to 5.36 µM) | < 10 | > 64 | 16 to 32 (≈ 21.5 to 42.9 µM)
CN(CCN1CCN(C(=O)NC(C(=O)N[C@H]2Cc3ccc(F)c(C(=O)O)c3OB2O)c2cc(F)c(O)c(O)c2Cl)C(=O)C1=O)S(=O)(=O)c1ccc(C(N)=O)cc1 (stereo partly drawn) [Example 223, (3R)-3-(2-(4-(2-((4-carbamoyl-N-methylphenyl)sulfonamido)ethyl)-2,3-dioxopiperazine-1-carboxamido)-2-(2-chloro-5-fluoro-3,4-dihydroxyphenyl)acetamido)-7-fluoro-2-hydroxy-3,4-dihydro-2H-benzo[e][1,2]oxaborinine-8-carboxylic acid] | 2 to 4 (≈ 2.43 to 4.86 µM) | < 10 | 8 to 16 (≈ 9.72 to 19.4 µM) | 16 to 32 (≈ 19.4 to 38.9 µM) | < 1 | < 1 | 2 to 4 (≈ 2.43 to 4.86 µM) | 2 to 4 (≈ 2.43 to 4.86 µM) | 2 to 4 (≈ 2.43 to 4.86 µM) | > 64 | 2 to 4 (≈ 2.43 to 4.86 µM) | 2 to 4 (≈ 2.43 to 4.86 µM) | < 10 | > 64 | 16 to 32 (≈ 19.4 to 38.9 µM)
CN(CCN1CCN(C(=O)NC(C(=O)N[C@H]2Cc3ccc(F)c(C(=O)O)c3OB2O)c2cc(F)c(O)c(O)c2Cl)C(=O)C1=O)S(=O)(=O)c1cccc(C(N)=O)c1 (stereo partly drawn) [Example 224, (3R)-3-(2-(4-(2-((3-carbamoyl-N-methylphenyl)sulfonamido)ethyl)-2,3-dioxopiperazine-1-carboxamido)-2-(2-chloro-5-fluoro-3,4-dihydroxyphenyl)acetamido)-7-fluoro-2-hydroxy-3,4-dihydro-2H-benzo[e][1,2]oxaborinine-8-carboxylic acid] | 2 to 4 (≈ 2.43 to 4.86 µM) | < 10 | 8 to 16 (≈ 9.72 to 19.4 µM) | 16 to 32 (≈ 19.4 to 38.9 µM) | < 1 | < 1 | 2 to 4 (≈ 2.43 to 4.86 µM) | 2 to 4 (≈ 2.43 to 4.86 µM) | < 1 | > 64 | 2 to 4 (≈ 2.43 to 4.86 µM) | 2 to 4 (≈ 2.43 to 4.86 µM) | < 10 | > 64 | 16 to 32 (≈ 19.4 to 38.9 µM)
